Measured values: US20250099596A1, “TETRAHYDRONAPHTHALENE COMPOUND, AND PREPARATION METHOD THEREFOR AND USE THEREOF IN MEDICINE” (Jiangsu Hengrui Pharmaceuticals Co., Ltd., priority 2021, published 2025)
Read-outs that look alike come from different tables or passages of the source.

Assays:
[1] = Pharmacokinetic evaluation, beagle test; format: in vivo; conditions: beagles; for AUC(0-t): read-out: Area under curve AUC0-t; for half-life: read-out: Half-life T1/2 (converted); for Cmax: read-out: Plasma concentration Cmax
Experimental: With beagles as test animals, the plasma concentrations of the compound of Example 26-1 and Comparative Example 1 were determined by LC/MS/MS at different time points after intragastric (i.g.)/intravenous (i.v.) administration to beagles. The pharmacokinetic behavior of the compound of the present disclosure in beagles was studied and its pharmacokinetic profile was evaluated.
The compound of Example 26-1 and Comparative Example 1 (see patent WO2018102725A1, Example 411), whose structure is shown below:
Sixteen beagles, of which half were male and half female, were evenly divided into 4 groups. The beagles were provided by Shanghai Medicilon Inc. The 4 groups were fasted overnight and then dosed intragastrically and intravenously.
Certain amounts of the compound of Example 26-1 and the compound of Comparative Example 1 were weighed out and mixed with 5% (v/v) DMSO+30% (v/v) PG+30% (v/v) PEG400+35% (v/v) normal saline to make 0.4 mg/mL clear solutions (for the intragastric administration groups) and 0.25 mg/mL clear solutions (for the intravenous administration groups).
The intragastric administration groups: the dose was 2.0 mg/kg, and the volume was 5.0 mL/kg.
The intravenous administration groups: the dose was 0.5 mg/kg, and the volume was 2.0 mL/kg.
The intragastric administration group: Blood (1.0 mL) was collected from the jugular vein or the forelimb vein into EDTA-K2 anticoagulation tubes before administration and 0.25 h, 0.5 h, 1.0 h, 2.0 h, 4.0 h, 6.0 h, 8.0 h, 12.0 h and 24.0 h after administration and centrifuged at 10,000 rpm for 5 min (4° C.). The plasma was separated within 1 h and stored at −80° C. before analysis. The process from blood collection to centrifugation was performed in an ice bath. Three hours after administration, feeding was resumed.
The intravenous administration groups: Blood was collected before administration and 5 min, 0.25 h, 0.5 h, 1.0 h, 2.0 h, 4.0 h, 8.0 h, 12.0 h and 24 h after administration and processed as in the intragastric administration groups.
The plasma concentrations of the test compounds were determined after administration of different concentrations of the test compounds to beagles: plasma samples (50 μL) were collected from beagles at various time points after administration, and proteins were precipitated with 500 μL of methanol (containing 100 ng/mL internal standard Verapamil) for each of the samples; the mixtures were vortexed for 1 min and centrifuged at 18,000 g for 7 min. 500 μL of supernatant was transferred to a 96-well plate. 1 μL of supernatant was collected for LC/MS/MS analysis.

[2] = test system: human breast cancer cell MCF-7 (Y537S) xenograft tumors; test: Pharmacodynamic test: MCF-7 (Y537S) xenograft tumors in BEIGE SCID mice; format: in vivo; conditions: for Number of remaining animals/group / Mean tumor volume (mm^3) D 0 / Mean tumor volume (mm^3) D 28 / TGI (%) D 28: i.g., qd/28 d; for Mean tumor volume (mm^3) D 0: D 0 (day of grouping)
Excerpt: To evaluate the inhibitory effect of the compound of the present disclosure on the growth of human breast cancer cell MCF-7 (Y537S) xenograft tumors in BEIGE SCID mice.
A 2% Tween 80+98% PEG-400 solution was used.
Animals: BEIGE SCID female mice, purchased from Beijing Vital River Laboratory Animal Technology Co., Ltd. (certificate No. SCXK (Beijing) 2016-0006), weighing about 19 g on purchase.
BEIGE SCID mice were acclimatized and then grouped as follows:
MCF-7 (Y537S) cells in the logarithmic growth phase were subcutaneously inoculated at 1.0×10^7/mouse/200 μL (containing 100 μL of matrigel) into the right flank of female BEIGE SCID mice. After 18 days, when the tumor volume of tumor-bearing mice reached about 170 mm^3, the mice were randomly divided into 4 groups of 8 by tumor volume and body weight: a vehicle control group, an Example 26-1 5 mpk group, an Example 26-1 15 mpk group, and an Example 26-1 45 mpk group. The day of grouping was set as DO, and intragastric administration was started and performed once a day for 28 days. The 28th day after administration was set as D28 (Table 7). For the tumor-bearing mice, the tumor volume was measured with a vernier caliper and the body weight was measured with a balance twice a week, and data were recorded.
All data were plotted and statistically analyzed using Excel and GraphPad Prism 8 software.
The tumor volume (V) was calculated as follows: V=1/2×a×b^2, where a and b represent length and width, respectively.
The relative tumor proliferation rate T/C (%)=(T−T0)/(C−C0)×100(%), where T and C are tumor volumes of a treatment group and the control group respectively at the end of the experiment; T0 and C0 are tumor volumes of a treatment group and the control group respectively at the beginning of the experiment.
Tumor growth inhibition ? TGI (%)=1−T/C (%), and if TGI (%) exceeds 100%, it will not be shown as a specific value but >100%.

[3] = both sexes, beagle, dog, plasma, iv, i.v., 0.5 mg/kg
[4] = both sexes, beagle, dog, plasma, po, i.g., 2.0 mg/kg

With `CC(C)C[C@H]1CCc2cc(O)ccc2[C@H]1c1ccc(N2CCC(CN3CCN(c4ccc5c(c4)CN([C@H]4CCC(=O)NC4=O)C5=O)CC3)CC2)cc1` [Example 26-1, (S)-3-(5-(4-((1-(4-((1R,2R)-6-Hydroxy-2-isobutyl-1,2,3,4-tetrahydronaphthalen-1-yl)phenyl)piperidin-4-yl)methyl)piperazin-1-yl)-1-oxoisoindolin-2-yl)piperidine-2,6-dione] the “Clearance CL/F” value ([1]; i.v., 0.5 mg/kg) was 1.7 mL/min/kg, the AUC(0-t) [1, 3] was 4070 ng·h/mL and the half-life [1, 3] was 9.7 h. The Cmax [1, 3] was 1600 ng/mL, the Vd/F ([1]; both sexes, beagle, dog, plasma, po, i.g., 2.0 mg/kg, read-out: Apparent distribution volume Vz/F) was 5.67 L/kg and the AUC(0-t) [1, 4] was 4820 ng·h/mL. For the same compound, the CL/F ([1]; both sexes, beagle, dog, plasma, po, i.g., 2.0 mg/kg, read-out: Clearance CL/F) was 6.2 mL/min/kg, the half-life [1, 4] was 10.4 h and the Cmax [1, 4] was 436 ng/mL. The “Effect on the body weight of BEIGE SCID mice” value ([2]; i.g., 5, 15, 45 mpk, qd for 28 days) was “did not affect mouse body weight”, the “Number of remaining animals/group” value ([2]; 5 mpk) was 8/8 and the “Mean tumor volume (mm^3) D 0” value ([2]; 5 mpk) was 170.2 mm^3. The “Mean tumor volume (mm^3) D 28” value ([2]; 5 mpk) was 305.0 mm^3, the “TGI (%) D 28” value ([2]; 5 mpk) was 72% and the “Number of remaining animals/group” value ([2]; 15 mpk) was 8/8. The “Mean tumor volume (mm^3) D 0” value ([2]; 15 mpk) was 168.2 mm^3, the “Mean tumor volume (mm^3) D 28” value ([2]; 15 mpk) was 219.7 mm^3 and the “TGI (%) D 28” value ([2]; 15 mpk) was 89%. The “Number of remaining animals/group” value ([2]; 45 mpk) was 8/8, the “Mean tumor volume (mm^3) D 0” value ([2]; 45 mpk) was 168.6 mm^3 and the “Mean tumor volume (mm^3) D 28” value ([2]; 45 mpk) was 192.0 mm^3. For the same compound, the “TGI (%) D 28” value ([2]; 45 mpk) was 95%.
